Laboratory results from US20120316203A1, “Compositions and Methods for Inhibition of Cancers” (THE OHIO STATE UNIVERSITY RESEARCH FOUNDATION, priority 2009, published 2012).

System: A2780 xenograft tumor tissue
Assay: Immunoblot analysis of excised xenograft tumor tissue (JAK/STAT3, targets, apoptosis)
Type: in vivo, BALB/c nude mice
Procedure: Cells in RPMI 1640 were treated with DMSO (control) or HO-3867 (10 μmol/L) for 24 hours. Equal volumes of DMSO (0.1% v/v) were present in each treatment. Following treatment, the cell lysates were prepared in non-denaturing lysis buffer containing 10 mmol/L Tris-HCl (pH 7.4), 150 mmol/L NaCl, 1% Triton X-100, 1 mmol/L EDTA, 1 mmol/L EGTA, 0.3 mmol/L phenylmethyl-sulfonyl fluoride, 0.2 mmol/L sodium orthovanadate, 0.5% NP40, 1 μg/mL aprotinin, and 1 μg/mL leupetin. The lysates were centrifuged at 10,000×g for 20 minutes at 4° C. and the supernatant was separated. The protein concentration in the lysates was determined using a Pierce detergent-compatible protein assay kit. For Western blotting, 25 to 50 μg of protein lysate per sample were denatured in 2×SDS-PAGE sample buffer and subjected to SDS-PAGE on a 10% tris-glycine gel. The separated proteins were transferred to a polyvinylidene fluoride membrane and were blocked with 5% nonfat milk powder (w/v) in TBST (10 mmol/L Tris, 10 mmol/L NaCl, 0.1% Tween 20) for 1 hour at room temperature or overnight at 4° C. The membranes were then incubated with the primary antibodies. The bound antibodies were detected with horseradish peroxidase-labeled sheep anti-mouse IgG or horseradish peroxidase-labeled donkey anti-rabbit IgG using an enhanced chemiluminescence detection system (ECL Advanced kit). Protein expressions were determined using the Image Gauge v. 3.45 software.
Cultured A2780 cancer cells (2×10^6 cells in […] of PBS) were s.c. injected into the back of 6-week-old BALB/c nude mice from the National Cancer Institute. Five to 7 days later, when the tumors reached 3 to 5 mm in diameter, the mice were divided (n=9/group) in a manner to equalize the mean tumor diameter among the groups. The control group was given a normal diet (no treatment), whereas the experimental groups were treated using the DAP compounds mixed with the animal feed (Harlan Teklad) at three different levels (25, 50, and 100 ppm). The doses were chosen based on an initial dose-response study optimized to produce an observable effect on tumor growth. The size of the tumor was measured twice per week using a digital Vernier caliper. The tumor volume was determined from the orthogonal dimensions (d1, d2, d3) using the formula (d1×d2×d3)×π/6. Thirty five days after the beginning of HO-3867 treatment, the mice were sacrificed and the tumors were resected. The tumor tissues were then subjected to immunoblot analysis.

Structure (SMILES): CC1(C)C=C(CN2C/C(=C\c3ccc(F)cc3)C(=O)/C(=C/c3ccc(F)cc3)C2)C(C)(C)N1O [HO-3867, 1-[(1-oxyl-2,2,5,5-tetramethyl-2,5-dihydro-1H-pyrrol-3-yl)methyl]-(3E,5E)-3,5-bis(4-fluorobenzylidene)piperidin-4-one]
- cleaved caspase-3 and PARP in tumors (mouse, in vivo): significant induction
- cyclin D1, VEGF, Bcl-2, and Survivin levels in tumors (mouse, in vivo): clear decrease
- pJAK levels in tumor tissues (mouse, in vivo): did not observe any significant change
- total JAK levels in tumor tissues (mouse, in vivo): clear downregulation
- pSTAT3 Tyr705 and Ser727 levels in tumor tissue (without affecting total STAT3): decreased expressions
